Like-named read-outs stand apart in the source and are kept apart here.
Tests used:
[1] = system: mouse (MC3T3-E1) and human (TE-85) osteoblast-line cells; assay type: cell-based
Outline: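 Proliferation was read as ^3H-thymidine (0.4 μCi) uptake during a 4 h pulse, which started 20 h after compound addition. Before dosing, cells sat 24 h in 0.1% FBS. Values are % times control (100%).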

[2] = molecular target: T1, progestin receptor from rabbit uterus (Oryctolagus cuniculus, UniProt P06186); assay: Progestin receptor binding (3H-R5020 displacement); settings: rabbit uterine cytosol, 4° C., 18 h, read-out: IC50: Binding affinity for the progestin receptor from rabbit uterus
T1 construct: Cytosolic progestin receptor were obtained by mixing rabbit uterine tissue with a Tris buffer; from tissue; host or cells: rabbit uterus cytosol
Outline: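 Displacement of the radioligand 3H-R5020 was measured in cytosol from homogenized rabbit uterus (pH 7.4 Tris/EDTA/DTT/molybdate buffer), with compounds at 5% final DMSO and about 18 h at 4 °C. Charcoal removed free ligand, scintillation counting quantified bound ligand, and IC50 was the concentration displacing half.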

T1 sequence (P06186 whole entry): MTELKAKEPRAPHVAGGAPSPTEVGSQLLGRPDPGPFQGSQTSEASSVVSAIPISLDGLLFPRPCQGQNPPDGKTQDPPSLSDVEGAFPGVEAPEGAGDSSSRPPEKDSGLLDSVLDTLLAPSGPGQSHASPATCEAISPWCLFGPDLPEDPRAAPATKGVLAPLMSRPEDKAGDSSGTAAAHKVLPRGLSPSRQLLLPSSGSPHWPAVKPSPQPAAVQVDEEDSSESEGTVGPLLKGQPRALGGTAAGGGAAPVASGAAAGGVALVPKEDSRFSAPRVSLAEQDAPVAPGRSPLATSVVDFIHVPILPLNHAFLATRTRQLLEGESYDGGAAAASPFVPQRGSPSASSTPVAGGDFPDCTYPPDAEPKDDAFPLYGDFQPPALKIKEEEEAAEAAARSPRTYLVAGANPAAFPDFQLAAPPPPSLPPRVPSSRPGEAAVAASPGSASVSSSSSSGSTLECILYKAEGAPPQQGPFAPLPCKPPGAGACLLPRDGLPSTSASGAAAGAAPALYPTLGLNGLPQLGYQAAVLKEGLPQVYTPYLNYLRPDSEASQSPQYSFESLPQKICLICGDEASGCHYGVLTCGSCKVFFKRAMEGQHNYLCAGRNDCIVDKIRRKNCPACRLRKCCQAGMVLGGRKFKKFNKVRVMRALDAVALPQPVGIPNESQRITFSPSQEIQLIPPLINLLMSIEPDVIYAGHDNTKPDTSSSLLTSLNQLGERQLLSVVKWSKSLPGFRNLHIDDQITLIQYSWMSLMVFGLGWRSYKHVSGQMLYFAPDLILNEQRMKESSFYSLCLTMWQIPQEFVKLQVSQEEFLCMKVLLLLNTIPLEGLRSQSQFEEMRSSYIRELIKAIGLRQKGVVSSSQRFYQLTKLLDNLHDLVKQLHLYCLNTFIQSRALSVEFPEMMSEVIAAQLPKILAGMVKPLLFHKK

SMILES	Osteoblast Cell Proliferation, 3H-thymidine incorporation vs control (100%) ([1]; 10^-6) [%]	Osteoblast Cell Proliferation, 3H-thymidine incorporation vs control (100%) ([1]; 10^-7) [%]	Osteoblast Cell Proliferation, 3H-thymidine incorporation vs control (100%) ([1]; 10^-8) [%]	Osteoblast Cell Proliferation, 3H-thymidine incorporation vs control (100%) ([1]; 10^-9) [%]	Osteoblast Cell Proliferation, 3H-thymidine incorporation vs control (100%) ([1]; 10^-10) [%]	IC50 [2] [nM]
CCOP(=O)(c1ccccc1)N1CCCC(c2ccc(Cl)c(C(F)(F)F)c2)=N1 (stereo not drawn) [Compound 262]	99	104	102	110	141	958
O=C(c1ccc(Cl)cc1)N1CCCC(c2ccc(F)cc2)=N1 [Compound 204]	79	109	105	101	109	3000
O=S(=O)(c1ccc(Cl)cc1)N1CCCC(c2ccc(-c3ccccc3)cc2)=N1 [Compound 84]	108	119	130	127	122	1000
O=[N+]([O-])c1cccc(S(=O)(=O)N2CCCC(c3ccc(Cl)cc3)=N2)c1 [Compound 14]	96	109	118	136	139	7
COc1ccc(C2=NN(C(=O)c3cccc(Cl)c3)CCC2)cc1 [Compound 188]	105	129	130	135	137	100000
O=C(c1ccccc1)N1CCCC(c2ccccc2)=N1 [Compound 196]	102	97	102	92	104	100000
Cc1ccc(S(=O)(=O)N2N=C(c3ccccc3)CC3Cc4ccccc4C32)cc1 (stereo not drawn) [Compound 158, 1,4,4a,9a,-Tetrahydro-4-(4-methylbenzenesulfonyl)-2-phenyl-3,4-diazafluorene Hemihydrate]	105	102	122	114	119	3000
Cc1ccc(S(=O)(=O)N2N=C(c3ccccc3)CC3CCCC32)cc1 (stereo not drawn) [Compound 156, 4,4a,5,6,7,7a-Hexahydro-3-phenyl-1-(4-methylbenzenesulfonyl)-1H-cyclopenta[c]pyridazine]	127	124	126	136	183	1000
O=S(=O)(c1ccccc1)N1CCCC(c2ccc(Cl)c(Cl)c2)=N1 [Compound 43]	92	92	99	98	85	3.3
O=S(=O)(c1ccc(Cl)cc1)N1CCCC(c2ccc3c(c2)CCCC3)=N1 [Compound 88]	97	109	89	74	62	10.2
Cc1ccc(S(=O)(=O)N2CCCC(c3ccccc3)=N2)cc1 [Compound 2]	105	119	99	91	77	3000
O=S(=O)(c1ccc(F)cc1F)N1CCCC(c2ccc(Cl)cc2)=N1 [Compound 32]	89	103	105	111	118	45
O=C(c1ccccc1)N1CCCC(c2ccc(Cl)cc2)=N1 [Compound 191, 1-Benzoyl-3-(4-chlorophenyl)-1,4,5,6-tetrahydropyridazine]	86	133	126	133	123	100000
CCCCc1ccc(C2=NN(S(=O)(=O)c3ccc4ccccc4c3)CCC2)cc1 [Compound 72]	113	119	129	120	123	10000
O=C(c1ccc([N+](=O)[O-])cc1)N1CCCC(c2ccc(Cl)c(Cl)c2)=N1 [Compound 217]	86	87	91	72	52	102
O=S(=O)(c1cc(Cl)ccc1Cl)N1CCCC(c2ccc(Cl)cc2)=N1 [Compound 5]	89	106	124	108	114	5.3
COc1ccc(C(=O)N2CCCC(c3ccc(OC)cc3)=N2)cc1 [Compound 182]	95	108	118	139	115	100000
Nc1ccc(S(=O)(=O)N2CCCC(c3ccc(Cl)cc3)=N2)cc1 [Compound 153, 1-(4-Aminobenzenesulfonyl)-3-(4-chlorophenyl)-1,4,5,6-tetrahydropyridazine]	85	115	83	99	103	636
Cc1ccc(S(=O)(=O)N2CCCC(c3ccc(F)cc3)=N2)cc1 [Compound 9]	65	94	128	102	119	362
O=C(c1ccc(Cl)c(Cl)c1)N1CCCC(c2ccc(Cl)cc2)=N1 [Compound 200]	97	109	107	120	88	5000
O=C(c1ccc([N+](=O)[O-])cc1)N1CCCC(c2ccc(F)cc2)=N1 [Compound 203]	73	85	102	98	106	978
COc1ccc(C2=NN(C(=O)c3ccc(Br)cc3)CCC2)cc1 [Compound 190]	121	135	130	139	158	100000
